{"source": "ChEMBL document CHEMBL1201862", "about": "“PubChem BioAssay data set” (2004)", "key": {"[1]": {"target": "T1, Sentrin-specific protease 1 (Homo sapiens, UniProt Q9P0U3)", "T1 sequence (Q9P0U3 whole entry)": "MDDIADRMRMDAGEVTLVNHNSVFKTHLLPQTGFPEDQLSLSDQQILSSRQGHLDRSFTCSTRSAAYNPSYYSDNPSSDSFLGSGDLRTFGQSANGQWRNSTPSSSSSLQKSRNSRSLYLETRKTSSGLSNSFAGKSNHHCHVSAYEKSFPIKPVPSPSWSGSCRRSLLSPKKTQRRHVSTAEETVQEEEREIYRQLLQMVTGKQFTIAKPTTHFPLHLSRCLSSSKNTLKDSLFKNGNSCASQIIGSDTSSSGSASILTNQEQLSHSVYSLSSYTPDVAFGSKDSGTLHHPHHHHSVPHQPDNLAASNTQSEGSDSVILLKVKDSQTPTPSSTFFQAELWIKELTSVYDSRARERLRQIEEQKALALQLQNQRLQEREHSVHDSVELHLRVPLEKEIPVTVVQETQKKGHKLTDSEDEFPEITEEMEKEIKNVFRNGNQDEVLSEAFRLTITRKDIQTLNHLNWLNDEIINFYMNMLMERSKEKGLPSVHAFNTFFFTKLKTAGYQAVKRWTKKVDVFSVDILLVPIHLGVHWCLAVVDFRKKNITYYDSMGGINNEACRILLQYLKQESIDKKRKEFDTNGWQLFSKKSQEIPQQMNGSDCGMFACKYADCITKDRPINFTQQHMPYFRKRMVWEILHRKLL", "assay": "potency of human SENP1 inhibitors, dose response, biochemical, kinetic FRET (AID 651697)", "format": "functional", "settings": "read-out: IC50_Mean"}, "[2]": {"target": "T1, Sentrin-specific protease 1", "assay": "Dose response confirmation of small molecule inhibitors of the catalytic domain of the SUMO protease, SENP1 in a FRET assay.", "format": "functional", "settings": "read-out: IC50_Mean"}, "[3]": {"target": "Luciferin 4-monooxygenase (Photinus pyralis, UniProt P08659)", "sequence (P08659 whole entry)": "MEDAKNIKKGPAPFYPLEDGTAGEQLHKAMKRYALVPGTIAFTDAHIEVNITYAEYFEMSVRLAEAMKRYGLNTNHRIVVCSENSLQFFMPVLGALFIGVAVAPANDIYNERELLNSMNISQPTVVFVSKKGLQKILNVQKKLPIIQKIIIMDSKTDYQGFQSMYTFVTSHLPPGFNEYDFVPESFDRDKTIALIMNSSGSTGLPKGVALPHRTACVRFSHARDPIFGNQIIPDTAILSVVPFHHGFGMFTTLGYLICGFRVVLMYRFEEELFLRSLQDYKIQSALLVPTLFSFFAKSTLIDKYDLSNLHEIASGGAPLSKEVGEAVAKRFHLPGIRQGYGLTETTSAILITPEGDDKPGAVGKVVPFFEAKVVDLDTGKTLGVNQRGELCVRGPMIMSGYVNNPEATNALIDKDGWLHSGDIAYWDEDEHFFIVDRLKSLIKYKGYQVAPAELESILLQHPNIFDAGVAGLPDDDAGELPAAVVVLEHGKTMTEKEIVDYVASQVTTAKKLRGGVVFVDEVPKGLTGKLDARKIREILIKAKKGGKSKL", "assay": "firefly luciferase enzyme inhibitors, dose response, biochemical, luminescence (AID 1891)"}, "[4]": {"assay": "Luminescence Cell-Based Dose Confirmation HTS to Identify Inhibitors of Platelet Dense Granule Release. [Related pubchem assays: 1663 (Primary HTS), 1678 (Summary of Project)]", "format": "functional"}, "Cysteine protease ATG4B": {"target": "T2, Cysteine protease ATG4B (Homo sapiens, UniProt Q9Y4P1)", "T2 sequence (Q9Y4P1 whole entry)": "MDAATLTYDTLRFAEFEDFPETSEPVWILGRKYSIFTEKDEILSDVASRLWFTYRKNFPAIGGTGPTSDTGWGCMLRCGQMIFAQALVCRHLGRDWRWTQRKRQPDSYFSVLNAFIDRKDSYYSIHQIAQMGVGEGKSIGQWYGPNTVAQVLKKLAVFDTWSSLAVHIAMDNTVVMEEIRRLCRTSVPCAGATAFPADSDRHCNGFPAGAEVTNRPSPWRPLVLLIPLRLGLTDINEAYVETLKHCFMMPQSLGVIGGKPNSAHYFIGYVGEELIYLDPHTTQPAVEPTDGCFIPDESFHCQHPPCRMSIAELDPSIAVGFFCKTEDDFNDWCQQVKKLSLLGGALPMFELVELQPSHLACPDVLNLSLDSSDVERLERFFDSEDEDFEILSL", "format": "functional"}, "Phospholipase A2": {"target": "Phospholipase A2 (Homo sapiens, UniProt P04054)", "sequence (P04054 whole entry)": "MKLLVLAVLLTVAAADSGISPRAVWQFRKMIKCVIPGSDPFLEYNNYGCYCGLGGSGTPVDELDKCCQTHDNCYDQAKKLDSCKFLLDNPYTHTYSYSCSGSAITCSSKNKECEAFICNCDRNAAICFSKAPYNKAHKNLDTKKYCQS", "format": "functional"}, "BJ [5]": {"test_system": "BJ", "assay": "cytotoxicity toward BJ-TERT fibroblasts, dose response, cell-based, RAS-independent, luminescence (AID 1933)", "format": "functional", "settings": "Homo sapiens"}, "BJ [6]": {"test_system": "BJ", "assay": "cells", "format": "functional, cell-based", "settings": "Homo sapiens"}, "BJ [7]": {"test_system": "BJ", "assay": "cytotoxicity toward BJ-TERT-LT-ST fibroblasts, dose response, cell-based, RAS-independent, luminescence (AID 1935);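 note: BJ fibroblasts immortalized with TERT plus LT and ST oncogenes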", "format": "functional", "settings": "Homo sapiens"}, "[8]": {"assay": "cytotoxicity toward DRD oncogenic fibroblasts, dose response, cell-based, non-viral oncogenic, luminescence (AID 1934)", "format": "functional", "settings": "Homo sapiens"}, "BJ [9]": {"test_system": "BJ", "assay": "cytotoxicity toward Ras-transformed BJeLR fibroblasts, dose response, cell-based, alamar blue fluorescence, cherrypicked samples (AID 2631)", "format": "functional", "settings": "Homo sapiens"}, "Vero": {"test_system": "Vero", "assay": "cells", "format": "functional", "settings": "Chlorocebus sabaeus"}, "[10]": {"target": "Tyrosine-protein phosphatase non-receptor type 11 (Homo sapiens, UniProt Q06124)", "sequence (Q06124 whole entry)": "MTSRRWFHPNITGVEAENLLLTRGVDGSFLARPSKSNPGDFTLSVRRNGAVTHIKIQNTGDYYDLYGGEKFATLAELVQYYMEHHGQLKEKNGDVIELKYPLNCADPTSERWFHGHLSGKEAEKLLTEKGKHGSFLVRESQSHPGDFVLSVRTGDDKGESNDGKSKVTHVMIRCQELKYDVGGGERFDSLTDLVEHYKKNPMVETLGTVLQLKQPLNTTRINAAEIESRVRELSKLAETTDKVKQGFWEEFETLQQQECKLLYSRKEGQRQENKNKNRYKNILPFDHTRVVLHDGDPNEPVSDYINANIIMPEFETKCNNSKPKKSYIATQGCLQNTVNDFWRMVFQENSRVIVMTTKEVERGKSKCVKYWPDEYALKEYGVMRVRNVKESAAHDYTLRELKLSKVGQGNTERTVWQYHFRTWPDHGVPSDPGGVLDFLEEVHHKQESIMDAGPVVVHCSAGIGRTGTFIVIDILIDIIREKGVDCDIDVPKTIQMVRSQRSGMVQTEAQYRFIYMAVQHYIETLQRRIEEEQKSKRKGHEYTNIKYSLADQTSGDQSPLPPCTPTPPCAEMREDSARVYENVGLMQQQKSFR", "assay": "SHP2 phosphatase inhibition, dose response, selectivity assay for STEP inhibitor project, biochemical (AID 602367)", "format": "functional", "settings": "read-out: IC50_Mean"}, "[11]": {"target": "Tyrosine-protein phosphatase non-receptor type 5 (Homo sapiens, UniProt P54829)", "sequence (P54829 whole entry)": "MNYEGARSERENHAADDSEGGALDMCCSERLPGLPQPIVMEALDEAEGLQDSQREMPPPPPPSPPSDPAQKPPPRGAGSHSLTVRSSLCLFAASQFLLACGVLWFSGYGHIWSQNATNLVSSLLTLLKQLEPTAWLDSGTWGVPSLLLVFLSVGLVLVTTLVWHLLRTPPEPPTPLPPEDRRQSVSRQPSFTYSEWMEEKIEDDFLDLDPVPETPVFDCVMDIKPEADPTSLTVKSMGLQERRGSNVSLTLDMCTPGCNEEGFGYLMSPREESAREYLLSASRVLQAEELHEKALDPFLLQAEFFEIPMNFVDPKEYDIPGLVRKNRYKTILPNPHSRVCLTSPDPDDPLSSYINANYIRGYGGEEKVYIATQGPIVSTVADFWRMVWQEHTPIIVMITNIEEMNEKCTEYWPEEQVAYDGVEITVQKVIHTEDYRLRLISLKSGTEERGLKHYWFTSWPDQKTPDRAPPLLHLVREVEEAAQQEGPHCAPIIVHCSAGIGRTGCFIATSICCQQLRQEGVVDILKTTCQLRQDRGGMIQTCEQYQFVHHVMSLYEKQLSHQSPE", "assay": "STEP phosphatase inhibitors, confirmation, biochemical, fluorescence intensity, uHTS hits (AID 602372)", "format": "functional", "settings": "read-out: IC50_Mean"}, "[12]": {"target": "Dual specificity protein phosphatase 3 (Homo sapiens, UniProt P51452)", "sequence (P51452 whole entry)": "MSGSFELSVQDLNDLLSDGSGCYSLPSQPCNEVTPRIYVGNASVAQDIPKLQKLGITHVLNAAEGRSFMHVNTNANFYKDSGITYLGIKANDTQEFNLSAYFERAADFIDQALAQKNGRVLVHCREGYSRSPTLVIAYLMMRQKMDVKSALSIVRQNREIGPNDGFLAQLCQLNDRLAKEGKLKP", "assay": "VHR phosphatase inhibition, dose response, selectivity assay for STEP inhibitor project, biochemical (AID 602374)", "format": "functional", "settings": "read-out: IC50_Mean"}, "Protein Wnt-3a": {"target": "Protein Wnt-3a (Mus musculus, UniProt P27467)", "sequence (P27467 whole entry)": "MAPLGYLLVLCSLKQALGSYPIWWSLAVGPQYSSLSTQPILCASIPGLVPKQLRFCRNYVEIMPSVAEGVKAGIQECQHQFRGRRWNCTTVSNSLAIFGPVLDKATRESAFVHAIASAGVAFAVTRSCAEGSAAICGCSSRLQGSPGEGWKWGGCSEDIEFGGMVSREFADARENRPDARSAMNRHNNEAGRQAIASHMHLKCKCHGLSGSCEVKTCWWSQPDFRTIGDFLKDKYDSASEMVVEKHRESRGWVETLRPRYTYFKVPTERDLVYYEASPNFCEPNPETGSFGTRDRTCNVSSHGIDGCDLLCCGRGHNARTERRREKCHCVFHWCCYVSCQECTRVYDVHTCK", "assay": "Wnt3a-driven reporter signaling inhibition, dose response, selectivity assay for Gli-SUFU antagonist project, Wnt-LIGHT cells, luminescence (AID 651570);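 note: Wnt-LIGHT reporter cells stimulated with conditioned medium from Wnt3a-producing cells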", "format": "functional", "settings": "read-out: IC50_Mean"}}, "note": "Calls of active or inactive are those of the source.", "data": [{"smiles": "Cc1ccc2cc3c(N)c(C(=O)N4CCOCC4)sc3nc2c1", "values": [{"measurement": "IC50", "setting": "[1]", "value": "35.9 µM (inactive)"}, {"measurement": "IC50", "setting": "[2]", "value": "30.6 µM (inactive)"}]}, {"smiles": "Cc1cccc(OCC(=O)Nc2ccccc2-c2ccccc2)c1", "values": [{"measurement": "EC50", "setting": "[3]", "value": "73.8 µM (active)"}, {"measurement": "EC50", "setting": "[4]", "value": "> 112 µM (not active)"}, {"measurement": "IC50", "setting": "Cysteine protease ATG4B", "value": "11.5 µM (active)"}, {"measurement": "IC50", "setting": "Phospholipase A2", "value": "11.9 µM (active)"}]}, {"smiles": "COc1ccc(OC)c(Nc2nc(N)nc(CCl)n2)c1", "values": [{"measurement": "EC50", "setting": "BJ [5]", "value": "0.258 µM (active)"}, {"measurement": "EC50", "setting": "BJ [6]", "value": "4.66 µM (inconclusive)"}, {"measurement": "EC50", "setting": "BJ [7]", "value": "> 150 µM (inconclusive)"}, {"measurement": "EC50", "setting": "[8]", "value": "2.16 µM (active)"}, {"measurement": "EC50", "setting": "BJ [9]", "value": "15.7 µM (active)"}, {"measurement": "CC50", "setting": "Vero", "value": "7.93 µM (active)"}]}, {"smiles": "COCCCN(C(S)=Nc1c(C)cc(C)cc1C)C(C)c1ccccn1", "note": "(stereo unspecified)", "values": [{"measurement": "IC50", "setting": "[10]", "value": "15.1 µM (active)"}, {"measurement": "IC50", "setting": "[11]", "value": "> 80 µM (inactive)"}, {"measurement": "IC50", "setting": "[12]", "value": "4.94 µM (active)"}]}, {"smiles": "O=[N+]([O-])c1ccc(N2CCN(C(=S)NCc3ccc(Cl)cc3)CC2)cc1", "values": [{"measurement": "IC50", "setting": "Protein Wnt-3a", "value": "5.08 µM (active)"}]}]}
